Columns and labels:
[1] = system: CPAR amnesia caused by MES in rats; assay: CPAR (conditioned passive avoidance reflex) amnesia caused by maximal electroshock seizure (MES); type: in vivo, rat; conditions: n = 10; for CPAR recalling test 24 hours later: Latent time of the reflex / CPAR training Latent time of the reflex: M ± m
Description: Example 1. The aim of the study is to assess the effect of the liposomal formulation of methyl 4-[2-oxo-1,2-bis[[2-(4-pyridinyl)ethyl]amino]ethyl]benzoate succinate on conditioned passive avoidance reflex (CPAR) amnesia caused by maximal electroshock seizure (MES) in comparison with the pharmaceutical substance of this compound and piracetam in rats.
CPAR is a basic method for studying the effects of drugs affecting memory in any manner whatsoever. When exposed to CPAR, it is possible to identify both memory improvement and its deterioration (amnesic effect). CPAR is based on the inborn hole exploratory behaviour of rodents—the tendency to hide in a limited darkened space.
The apparatus for studying the action of drugs is a dark chamber with an electrode floor. The dark chamber is connected through a square guillotine door with a hinged platform. The hinged platform is illuminated by a 60 watt lamp. The dark chamber is located oil the laboratory table, and the platform hangs above the floor at a height of 800 mm.
First, CPAR was developed in rats. Rats were placed on a lighted platform in from of the dark chamber of the apparatus with their tail toward the inlet and recorded latent time of the reflex. Then, in the dark chamber, the rat received a single 10-second pain stimulation with an electric current (0.3 mA) through the electrode floor (training)
Amnesia was invoked by MES Electric stimulus (250 V, 115-120 mA, 50 Hz, for 0.1 sec) for obtaining MES was applied to the rat through special cornal (ocular) electrodes, previously soaked in saline MES was performed directly after CPAR training.
Experimental groups. The animals were divided into 7 arms: • Arm I: control without amnesia (saline). • Arm II: control with amnesia (MES) • Arm III: Prototype 0.25 mg/kg+MES. • Arm IV: Prototype 1.0 mg/kg+MES. • Arm V: Current liposomal formulation 0.25 mg/kg+MES. • Arm VI: Current liposomal formulation 1.0 mg/kg+MES. • Arm VII: Piracetam 400 mg/kg+MES.
The prototype and the current liposomal composition were administered intragastrically. Piracetam was administered once intraperitoneally 40 minutes before the experiment

[2] = system: streptozotocin-induced rat model of AD; assay: CPAR test on a streptozotocin-induced rat model of AD; type: in vivo; conditions: for Latent period of going into the dark chamber, Recalling, 24 hours later / Latent period of going into the dark chamber, Recalling, 7 days later / Latent period of going into the dark chamber, Recalling, 14 days later / Latent period of going into the dark chamber, Training LP1 / Number of animals with amnesia that went into the dark chamber during the CPAR recalling test/Number of animals in the group, 24 hours later / Number of animals with amnesia that went into the dark chamber during the CPAR recalling test/Number of animals in the group, 7 days later / Number of animals with amnesia that went into the dark chamber during the CPAR recalling test/Number of animals in the group, 14 days later / percentage of rats with reflex impairment (went into the dark chamber), 24 hours later / percentage of rats with reflex impairment (went into the dark chamber), 7 days later / percentage of rats with reflex impairment (went into the dark chamber), 14 days later: rats, n = 12; for Latent period of going into the dark chamber, Recalling, 24 hours later / Latent period of going into the dark chamber, Recalling, 7 days later / Latent period of going into the dark chamber, Recalling, 14 days later / Latent period of going into the dark chamber, Training LP1: M ± m
Description: Example 2. The aim of the study is to assess the specific pharmacological activity of the liposomal formulation of methyl 4-[2-oxo-1,2-bis[[2-(4-pyridinyl)ethyl]amino]ethyl]benzoate succinate in comparison with the pharmaceutical substance of this compound and memantine on memory loss when modelling AD using neurotoxin streptozotocin in rats.
In this study, the modelling of AD was performed using the procedure recommended in the Methodological Recommendations for the preclinical study of nootropic drugs.
According to the procedure, AD modeling was performed by introducing streptozotocin toxin into the cerebral ventricles of the rat.
The surgical neurotoxin injection into the brain was performed in anaesthetized animals (with chloral hydrate at a dose of 200 mg/kg, ip) in a stereotaxic apparatus.
First, the cranial trepanation was performed in animals according to the stereotaxic coordinates; AP (1.0), L (1.5-2). Streptozotocin at a dose of 3 mg/kg was injected bilaterally into the lateral ventricles of the brain according to the stereotaxic coordinates: AP (1.0): L (1.5-2): H (3.0). The toxin was injected at a rate of 0.1 μl per minute; the injected solution volume was 5 μl in each ventricle
The cranial trepanation of the control (sham-operated) animals was performed according to the stereotaxic coordinates: AP (1.0): L (1.5-2), and distilled water was then injected bilaterally into the lateral ventricles of the brain also according to the stereotaxic coordinates, in the same volume and at the same rate as the studied drugs.
1 hour after surgery, the intragastric administration of substances to rats started, which continued for 14 days.
The test pharmaceutical substance (Prototype) and the current liposomal formulation of this compound were administered to rats in 2 doses of 0.25 mg/kg and 1 mg/kg. Memantine at a dose of 1 mg/kg. Distilled water was administered to control animals.
The day after the last injection of substances, procedures that allow testing the training and memory of animals started.
Evaluation of the antiamnesic effect of PAM-12 in comparison with memantine was performed using the CPAR method. A detailed description of the CPAR method is given in Example 1. […] Memory loss was determined in the terms of the reduction of the latent time of the CPAR and increase in the number of animals that went into the dark chamber during reflex recalling test, compared to that of the control
The animals were randomly divided into 8 arms.
1. Intact control—distilled water, intragastrically (i.g.), 14 days-12 rats.
2. Control—sham-operated animals—distilled water, i.g. 14 days-12 rats.
3. Active control—injection of streptozotocin (STZ) 3 mg/kg into the cerebral ventricles+distilled water, i.g., 14 days-12 rats
4. Prototype 0.25 mg/kg, i.g., 14 days: the first injection 1 hour after the injection of STZ into the cerebral ventricles and then daily for 14 days-12 rats.
5. Prototype 1.0 mg/kg, i.g., 14 days: the first injection 1 hour after the injection of STZ into the cerebral ventricles and then daily for 14 days-12 rats.
6. Current liposomal formulation 0.25 mg/kg, i.g., 14 days: the first injection 1 hour after the injection of STZ into the cerebral ventricles and then daily for 14 days-12 rats
7. Current liposomal formulation 1.0 mg/kg, i.g., 14 days: the first injection 1 hour after the injection of STZ into the cerebral ventricles and then daily for 14 days-12 rats.
8. Memantine 1 mg/kg. i.g., 14 days: the first injection 1 hour after the injection of STZ into the cerebral ventricles and then daily for 14 days-12 rats.

[3] = 400 mg/kg once intraperitoneally + MES
[4] = 1.0 mg/kg i.g. + STZ (memantine printed p.o.)
[5] = 0.25 mg/kg once intragastrically + MES
[6] = 1 mg/kg once intragastrically + MES

## NC(=O)CN1CCCC1=O [Piracetam]
[1]; [3]
  CPAR recalling test 24 hours later: Latent time of the reflex: 97.17 ± 21.43 s
  CPAR training Latent time of the reflex: 19.11 ± 5.28 s
  CPAR recalling test 24 hours later: Number of animals that did not go into the dark chamber, %: 50%

## CC12CC3CC(C)(C1)CC(N)(C3)C2 [Memantine]
[2]; 1 mg/kg
  antiamnesic effect in rats of the streptozotocin-induced AD model: pronounced antiamnesic effect
[2]; 1.0 mg/kg i.g. 14 days + STZ
  Latent period of going into the dark chamber, Recalling, 24 hours later: 166.4 ± 13.6 s
  Latent period of going into the dark chamber, Recalling, 7 days later: 166.4 ± 13.6 s
  Latent period of going into the dark chamber, Recalling, 14 days later: 143.5 ± 19.2 s
  Latent period of going into the dark chamber, Training LP1: 20.4 ± 3.4 s
[2]; [4]
  Number of animals with amnesia that went into the dark chamber during the CPAR recalling test/Number of animals in the group, 24 hours later: 1/12
  Number of animals with amnesia that went into the dark chamber during the CPAR recalling test/Number of animals in the group, 7 days later: 1/12
  Number of animals with amnesia that went into the dark chamber during the CPAR recalling test/Number of animals in the group, 14 days later: 3/12
  percentage of rats with reflex impairment (went into the dark chamber), 24 hours later: 8.3%
  percentage of rats with reflex impairment (went into the dark chamber), 7 days later: 8.3%
  percentage of rats with reflex impairment (went into the dark chamber), 14 days later: 25%
[2]; 1 mg/kg, 24 hours after the CPAR training
  number of rats who forgot about the pain stimulation, times less compared to Active Control group: 5 times
[2]; 1 mg/kg, 7 days after the CPAR training
  number of rats who forgot about the pain stimulation, times less compared to Active Control group: 7 times
[2]; 1 mg/kg, 7 days later
  latent period longer than in the Active control group: 1.5 times
[2]; 1 mg/kg, 14 days after the CPAR training
  number of rats who forgot about the pain stimulation, times less compared to Active Control group: 2.7 times
[2]; 1 mg/kg, 14 days later
  latent period longer than in the Active control group: 1.9 times

## COC(=O)c1ccc(C(NCCc2ccncc2)C(=O)NCCc2ccncc2)cc1.O=C(O)CCC(=O)O (stereo not shown) [Prototype, methyl 4-[2-oxo-1,2-bis[[2-(4-pyridinyl)ethyl]amino]ethyl]benzoate succinate]
[2]; 0.25 mg/kg i.g. 14 days + STZ
  Latent period of going into the dark chamber, Recalling, 24 hours later: 133.1 ± 13.3 s
  Latent period of going into the dark chamber, Recalling, 7 days later: 121.3 ± 17.8 s
  Latent period of going into the dark chamber, Recalling, 14 days later: 102.8 ± 19.4 s
  Latent period of going into the dark chamber, Training LP1: 24.3 ± 5.1 s
[2]; 0.25 mg/kg i.g. + STZ
  Number of animals with amnesia that went into the dark chamber during the CPAR recalling test/Number of animals in the group, 24 hours later: 4/12
  Number of animals with amnesia that went into the dark chamber during the CPAR recalling test/Number of animals in the group, 7 days later: 5/12
  Number of animals with amnesia that went into the dark chamber during the CPAR recalling test/Number of animals in the group, 14 days later: 6/12
  percentage of rats with reflex impairment (went into the dark chamber), 24 hours later: 33.3%
  percentage of rats with reflex impairment (went into the dark chamber), 7 days later: 41.7%
  percentage of rats with reflex impairment (went into the dark chamber), 14 days later: 50%
[2]; 1.0 mg/kg i.g. 14 days + STZ
  Latent period of going into the dark chamber, Recalling, 24 hours later: 147.7 ± 16.2 s
  Latent period of going into the dark chamber, Recalling, 7 days later: 132.3 ± 2.8 s
  Latent period of going into the dark chamber, Recalling, 14 days later: 124.9 ± 20.3 s
  Latent period of going into the dark chamber, Training LP1: 30.1 ± 12.1 s
[2]; [4]
  Number of animals with amnesia that went into the dark chamber during the CPAR recalling test/Number of animals in the group, 24 hours later: 3/12
  Number of animals with amnesia that went into the dark chamber during the CPAR recalling test/Number of animals in the group, 7 days later: 4/12
  Number of animals with amnesia that went into the dark chamber during the CPAR recalling test/Number of animals in the group, 14 days later: 5/12
  percentage of rats with reflex impairment (went into the dark chamber), 24 hours later: 25%
  percentage of rats with reflex impairment (went into the dark chamber), 7 days later: 33.3%
  percentage of rats with reflex impairment (went into the dark chamber), 14 days later: 41.7%
[1]; [5]
  CPAR recalling test 24 hours later: Latent time of the reflex: 107.86 ± 15.12 s
  CPAR training Latent time of the reflex: 20.38 ± 4.38 s
[1]; [6]
  CPAR recalling test 24 hours later: Latent time of the reflex: 118.13 ± 17.26 s
  CPAR training Latent time of the reflex: 13.29 ± 2.78 s

Source: patent US20200281908A1, “MEANS FOR TREATING DEMENTIA OF VARIOUS ETIOLOGY” (priority 2016, published 2020)
